Laboratory results from ChEMBL document CHEMBL3232769, “Design and synthesis of conformationally restricted inhibitors of active thrombin activatable fibrinolysis inhibitor (TAFIa)” (Bioorg Med Chem, 2014).

Key:
[1] = Lipophilicity, log D of the compound at pH 7.4; details: buffer
[2] = molecular target: T1, Carboxypeptidase N catalytic chain (Homo sapiens, UniProt P15169); assay: Inhibition of carboxypeptidase N (unknown origin)
T1 sequence (P15169 whole entry): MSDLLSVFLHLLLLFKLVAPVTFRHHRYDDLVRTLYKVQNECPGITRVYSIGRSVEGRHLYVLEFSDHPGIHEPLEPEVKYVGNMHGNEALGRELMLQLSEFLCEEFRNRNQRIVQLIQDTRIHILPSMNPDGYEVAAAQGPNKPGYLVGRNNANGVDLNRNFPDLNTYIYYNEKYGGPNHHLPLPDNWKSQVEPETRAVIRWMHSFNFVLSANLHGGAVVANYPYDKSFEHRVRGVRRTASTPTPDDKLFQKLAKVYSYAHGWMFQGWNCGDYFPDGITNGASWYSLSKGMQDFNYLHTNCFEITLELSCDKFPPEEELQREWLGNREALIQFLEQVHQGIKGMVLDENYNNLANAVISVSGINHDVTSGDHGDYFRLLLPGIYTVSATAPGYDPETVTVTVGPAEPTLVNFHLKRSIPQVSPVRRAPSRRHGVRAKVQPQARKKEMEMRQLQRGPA

Carboxypeptidase B2 [3] = molecular target: T2, Carboxypeptidase B2 (Homo sapiens, UniProt Q96IY4); assay: Inhibition of […] in human plasma assessed as clot lysis
T2 sequence (Q96IY4 whole entry): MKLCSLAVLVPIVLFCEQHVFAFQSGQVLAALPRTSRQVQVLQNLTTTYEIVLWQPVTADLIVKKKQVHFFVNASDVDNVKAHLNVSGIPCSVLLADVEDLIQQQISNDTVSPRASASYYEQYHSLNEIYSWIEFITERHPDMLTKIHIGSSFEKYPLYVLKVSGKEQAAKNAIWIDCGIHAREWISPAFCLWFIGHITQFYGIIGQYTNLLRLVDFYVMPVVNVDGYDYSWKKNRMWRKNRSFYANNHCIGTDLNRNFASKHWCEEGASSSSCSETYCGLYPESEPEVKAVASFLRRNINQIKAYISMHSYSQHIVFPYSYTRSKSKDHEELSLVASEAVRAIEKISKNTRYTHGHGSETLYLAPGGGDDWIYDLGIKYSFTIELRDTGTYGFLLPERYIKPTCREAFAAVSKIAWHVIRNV

Carboxypeptidase B2 [4] = molecular target: T2, Carboxypeptidase B2; assay: Inhibition of human TAF1a
[5] = Oral bioavailability in rat; type: ADME, organism-based; details: in vivo
Carboxypeptidase B2 [6] = molecular target: T2, Carboxypeptidase B2; assay: Inhibition of human […] using hippuryl-L-arginine/hippuryl-L-lysine as substrate by liquid chromatographic analysis
[7] = Clearance in rat; type: ADME, organism-based; details: in vivo
[8] = Tmax in rat; type: ADME, organism-based; details: in vivo
[9] = molecular target: Phosphodiesterase 4 (Homo sapiens) (UniProt P27815+Q08499+Q07343+Q08493); assay: Inhibition of PDE4 (unknown origin) at 10 uM; type: protein assay
[10] = Oral bioavailability in rat at 20 umol/kg; type: ADME, organism-based; details: in vivo
[11] = Oral bioavailability in rat at 6.8 umol/kg; type: ADME, organism-based; details: in vivo
[12] = Clearance in dog; type: ADME, organism-based, Canis lupus familiaris; details: in vivo

logD [1]	IC50 [2]	IC50 (Carboxypeptidase B2 [3])	IC50 (Carboxypeptidase B2 [4])	bioavailability [5]	IC50 (Carboxypeptidase B2 [6])	clearance [7]	Tmax [8]	inhibition [9]	bioavailability [10]	bioavailability [11]	clearance [12]	SMILES
3.6	> 1000 µM	16 µM	0.124 µM	–	–	–	–	–	–	–	–	NCCCC1(C(=O)O)CCc2c(ncn2CCC2CCC(C3CCCCC3)CC2)C1 (racemic)
–	–	0.4 µM	–	75%	0.087 µM	27 mL/min/kg	30 min	–	–	–	–	C[C@@H](S)[C@@H](Cc1ccc(N)nc1)C(=O)O
–	–	8 µM	–	–	0.62 µM	–	–	–	–	–	–	CCCn1cnc(CC(NCCN)C(=O)O)c1 (stereo not drawn)
< 0	> 1000 µM	1.3 µM	0.066 µM	4.9%	–	12 mL/min/kg	–	79%	–	–	–	NCCC[C@@]1(C(=O)O)CCn2c(-c3ccccc3)cnc2C1
–	–	5 µM	–	–	0.45 µM	2 mL/min/kg	60 min	–	8%	–	–	CCCn1cnc(C[C@H](CCCN)C(=O)O)c1 [UK-396,082]
< 0	> 1000 µM	–	–	–	–	6 mL/min/kg	12 min	–	2%	8%	–	CCCn1cnc2c1CC[C@@](CCCN)(C(=O)O)C2
< 0	> 1000 µM	0.08 µM	0.117 µM	1.4%	–	6.2 mL/min/kg	–	79%	–	–	3.5 mL/min/kg	NCCC[C@@]1(C(=O)O)CCc2c(ncn2C2CCCCC2)C1
–	> 1000 µM	> 100 µM	2.27 µM	–	–	–	–	–	–	–	–	CCc1cnc2n1CCC(CCCN)(C(=O)O)C2 (racemic)
2.4	> 1000 µM	3.2 µM	< 0.041 µM	0.9%	–	–	–	–	–	–	–	Cl.NCCC[C@@]1(C(=O)O)CCn2c(-c3cccc(-c4ccc(Cl)cc4Cl)c3)cnc2C1
< 0	> 1000 µM	0.1 µM	< 0.041 µM	1.4%	–	–	–	–	–	–	–	CC(C)CCn1cnc2c1CC[C@@](CCCN)(C(=O)O)C2.Cl
–	> 1000 µM	7.1 µM	0.585 µM	–	–	–	–	–	–	–	–	NCCCC1(C(=O)O)CCc2c(ncn2-c2ccccc2)C1 (racemic)
1	> 1000 µM	2.5 µM	0.106 µM	1.7%	–	–	–	–	–	–	–	NCCC[C@@]1(C(=O)O)CCc2c(ncn2Cc2cccc(-c3ccccc3)c2)C1
